Read-outs that look alike come from different tables or passages of the source.
Columns and labels:
[1] = system: lung-(NCI-H292) and kidney-(MDCK) derived epithelial cells; assay: Intracellular ROS (H2DCF-DA) in other epithelial cells; assay type: cell-based; details: pre-treatment of epithelial cells, NAC 1 mM, FIG. 2B
Procedure: Cell Lines. Cells were obtained from the ATCC (A549, NCI-H292 and MDCK), or Cambrex Bio Science (Walkersville, Md.) (NHBE). Cells were maintained in humidified CO2 (5%) incubator and medium as recommended by the suppliers. Measurements of Reactive Oxygen Species. Epithelial cells (A549, NCI-H292, NHBE, and MDCK) were “loaded” with 50 μM H2DCF-DA (Molecular Probes, Eugene, Oreg.) at 37° C. for 15 minutes. After washing out excess probe, cells were treated with various allergenic extracts with or without NADPH (100 μM), NAC (1 mM), or NADPH oxidase inhibitors: quinacrine (500 μM) and diphenylene iodonium (100 μM). The change in fluorescence intensity was assessed in a FLx800 micro plate reader (Bio-Tek Instruments, Winooski, Vt.), or by flow cytometry (FACScan, Becton Dickinson, Franklin Lakes, N.J.) at 488 nm excitation and 530 nm emission. Each data point represents the mean fluorescence from three or more independent experiments, and is expressed ±s.e.m.

NADPH oxidase = assay: NBT assay (reduction of NBT to formazan); assay type: biochemical, ragweed (Ambrosia artemisiifolia)
Procedure: NBT Assay. […]. Mixtures were then incubated for 15 min at 37° C., and the sedimented formazan was dissolved in methanol. The absorbance was determined at 530 nm in a spectrophotometer (DU 530, Beckman Instruments, Fullerton, Calif.).

[2] = system: normal human bronchial epithelial (NHBE) cells; assay: Intracellular ROS (H2DCF-DA) in cultured NHBE cells; assay type: cell-based; details: quinacrine 500 μM, diphenylene iodonium 100 μM, FIG. 2A
Procedure: Cell Lines. Cells were obtained from the ATCC (A549, NCI-H292 and MDCK), or Cambrex Bio Science (Walkersville, Md.) (NHBE). Cells were maintained in humidified CO2 (5%) incubator and medium as recommended by the suppliers.
Measurements of Reactive Oxygen Species. Epithelial cells (A549, NCI-H292, NHBE, and MDCK) were “loaded” with 50 μM H2DCF-DA (Molecular Probes, Eugene, Oreg.) at 37° C. for 15 minutes. After washing out excess probe, cells were treated with various allergenic extracts with or without NADPH (100 μM), NAC (1 mM), or NADPH oxidase inhibitors: quinacrine (500 μM) and diphenylene iodonium (100 μM). The change in fluorescence intensity was assessed in a FLx800 micro plate reader (Bio-Tek Instruments, Winooski, Vt.), or by flow cytometry (FACScan, Becton Dickinson, Franklin Lakes, N.J.) at 488 nm excitation and 530 nm emission. Each data point represents the mean fluorescence from three or more independent experiments, and is expressed ±s.e.m.

[3] = system: superoxide anions (O2.^−); assay: Cytochrome c assay for detecting O2.− generation; assay type: biochemical, ragweed (Ambrosia artemisiifolia); details: SOD 50 U/ml added to pRWE^NOX+NADPH+Cyt c
Procedure: Cytochrome c Assay for Detecting O2.^− Generation. The method described by Messner and Imaly was used. The assay was carried out in PBS with 10 μg pRWE and 10 μM oxidized cytochrome c (Sigma-Aldrich) in the reaction mixture. The reactions were started by adding 100 μM NADPH, and the increase in A550 nm was recorded for 5 min. Saturating amounts of SOD 9(50 U/ml, Sigma-Aldrich) were used in a reference reaction to determine any such O2.^− independent reduction of cytochrome c by the sample.

Row | Molecule | NBT reducing activity of pRWE^NOX in presence of the agent (NADPH oxidase; pRWE^NOX, FIG. 1A) | effect on extract-induced elevation in ROS levels [2] | also measured
1 | CC(=O)N[C@@H](CS)C(=O)O [N-acetyl-L-cysteine] |  |  | effect on RWE-induced increase in intracellular ROS levels [1]: inhibited; effect on RWE-induced increase in intracellular ROS levels ([1]; listed as NAC): inhibits
2 | [N-]=[N+]=[N-].[Na+] [azide, sodium azide] |  |  | NBT reducing activity of pRWE^NOX in presence of the agent (NADPH oxidase): resistant
3 | c1ccc2c(c1)[I+]c1ccccc1-2 [diphenyleneiodonium] | inhibited | inhibited | 
4 | CCN(CC)CCCC(C)Nc1c2ccc(Cl)cc2nc2ccc(OC)cc12 (centres unmarked) [quinacrine] | inhibited | inhibited | 
5 | superoxide dismutase |  |  | effect on the pRWE^NOX-induced increase in absorbance at 550 nm [3]: abrogated

Reference: patent US20060198904A1, “Methods for inhibiting allergic inflammation and other responses initiated by pollens, molds, and other non-animal derived allergens” (priority 2002, published 2006)
